From patent US20100197608A1, “USE OF MELANOTROPHIN-POTENTIATING FACTOR AS A THERAPEUTIC AGENT” (priority 2007, published 2010)
Where a SMILES comes first, the peptide text is derived from it.

Tested on: drug-resistant Mycobacterium tuberculosis
Settings: drug-resistant Mycobacterium tuberculosis growth; peptide 10 micrograms per ml; seven days

NCCCC[C@H](NC(=O)[C@@H](N)CCCCN)C(=O)NCC(=O)N[C@@H](CCC(=O)O)C(=O)O [MPF, Lys-Lys-Gly-Glu-OH] (H-KKGE-OH)
% inhibition: 0.0%
